# Measurements published in patent publication US20150352108A1, “AMINO-PYRIMIDINE COMPOUNDS AS INHIBITORS OF TBK1 AND/OR IKK EPSILON” (Alzheimer's Institute of America, priority 2009, published 2015).
# Molecular target: T1, IKKε (Homo sapiens, UniProt Q14164)
# T1 construct: His-tag; made in house; host or cells: Sf9 insect cells
# T1 sequence (Q14164 1-716): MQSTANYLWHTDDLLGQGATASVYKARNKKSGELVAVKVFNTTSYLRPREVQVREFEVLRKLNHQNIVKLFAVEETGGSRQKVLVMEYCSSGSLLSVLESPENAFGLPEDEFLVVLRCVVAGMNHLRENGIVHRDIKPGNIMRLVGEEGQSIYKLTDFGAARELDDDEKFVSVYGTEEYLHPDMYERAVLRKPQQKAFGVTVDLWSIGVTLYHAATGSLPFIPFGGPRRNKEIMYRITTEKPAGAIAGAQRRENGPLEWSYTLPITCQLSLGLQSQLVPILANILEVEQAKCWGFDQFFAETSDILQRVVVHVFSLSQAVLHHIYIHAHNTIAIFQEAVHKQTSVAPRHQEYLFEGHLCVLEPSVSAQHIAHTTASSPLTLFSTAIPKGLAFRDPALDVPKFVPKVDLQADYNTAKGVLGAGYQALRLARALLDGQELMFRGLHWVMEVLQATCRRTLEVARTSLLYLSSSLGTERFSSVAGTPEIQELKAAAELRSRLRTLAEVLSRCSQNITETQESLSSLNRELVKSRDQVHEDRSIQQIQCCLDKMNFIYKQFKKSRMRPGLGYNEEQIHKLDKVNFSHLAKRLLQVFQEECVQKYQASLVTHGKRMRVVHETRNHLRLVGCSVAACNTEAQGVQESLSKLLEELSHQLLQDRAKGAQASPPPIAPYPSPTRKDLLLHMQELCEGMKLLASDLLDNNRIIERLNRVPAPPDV
# Assay: In-vitro IKKε kinase assay ([γ33]ATP filter-plate)
# Assay type: biochemical
# Settings: text bins; read-out: IC50 for inhibition of the kinase activity of IKKε
# Procedure: IKKε enzyme was produced as a His-tag fusion in Sf9 cells and used at a final concentration of […]. TBK1 enzyme was produced as a His-tag fusion in Sf9 cells and used at a final concentration of 0.1 μg/ml. Kinase reactions were carried out in reaction buffer using myelin basic protein (Millipore, Ballerica, Mass.) or casein (Sigma, St. Louis, Mo.) as substrate at an ATP concentration equal to twice the Km,ATP value for each enzyme, corresponding to 32 μM ATP for IKKε and 60 μM ATP for TBK1, in the presence of 0.3 μCi [γ^33]ATP (PerkinElmer, Waltham, Mass.). Final enzyme concentrations were 0.1 or 0.015 μg/ml (IKKε) and 0.1 or 0.02 μg/ml (TBK1), representing “normal” and “sensitized” assay conditions respectively. Test compounds (or DMSO solvent as a control) were added prior to initiation of the reactions. Reactions were terminated after 30-45 minutes by adding 3% phosphoric acid. Terminated reactions were transferred to P-81 cellulose phosphate filterplates (Whatman, Inc., Piscataway, N.J.) and washed with 1% phosphoric acid on a vacuum apparatus. After air drying, scintillant (PerkinElmer, Waltham, Mass.) was added and the plates were read on a PerkinElmer TopCount NXT instrument. Counts were normalized to DMSO controls after background subtraction.
row,SMILES,IC50 [nM]
1,"N#Cc1cccc(-c2ccnc(Nc3ccc4c(c3)OCCO4)n2)c1 [Example 232, 3-[2-(2,3-Dihydro-1,4-benzodioxin-6-ylamino)pyrimidin-4-yl]benzonitrile]",50 to 500
2,"N#Cc1cc(-c2ccnc(Nc3ccc(N4CCOCC4)cc3)n2)ccc1OC1CCN(CC(=O)N2CCOCC2)CC1 [Example 234, 2-({1-[2-(morpholin-4-yl)-2-oxoethyl]piperidin-4-yl}oxy)-5-(2-{[4-(morpholin-4-yl)phenyl]amino}pyrimidin-4-yl)benzonitrile]",50 to 500
3,"CN1CCN(CC(=O)N2CCC(Oc3ccc(-c4ccnc(Nc5ccc(N6CCOCC6)cc5)n4)cc3C#N)CC2)CC1 [Example 240, 2-({1-[(4-methylpiperazin-1-yl)acetyl]piperidin-4-yl}oxy)-5-(2-{[4-(morpholin-4-yl)phenyl]amino}pyrimidin-4-yl)benzonitrile]",50 to 500
4,"CN1CCN(c2ccc(Nc3nccc(-c4cc(C#N)cc(OCc5ccccc5)c4)n3)cc2)CC1 [Example 244, 3-(Benzyloxy)-5-(2-{[4-(4-methylpiperazin-1-yl)phenyl]amino}pyrimidin-4-yl)benzonitrile]",50 to 500
5,"COc1ccc(-c2ccnc(Nc3cc(CN4CCC[C@H]4C(=O)N(C)C)c(OC)c(OC)c3)n2)cc1C#N [Example 245, 1-(5-{[4-(3-Cyano-4-methoxyphenyl)pyrimidin-2-yl]amino}-2,3-dimethoxybenzyl)-N,N-dimethylprolinamide]",50 to 500
6,"C[C@H](O)C(=O)N1CC(Oc2ccc(-c3ccnc(Nc4ccc(N5CCOCC5)cc4)n3)cc2C#N)C1 [Example 249, 2-({1-[(2S)-2-hydroxypropanoyl]azetidin-3-yl}oxy)-5-(2-{[4-(morpholin-4-yl)phenyl]amino}pyrimidin-4-yl)benzonitrile]",50 to 500
7,"C[C@H](O)C(=O)NCCOc1ccc(-c2ccnc(Nc3ccc(N4CCOCC4)cc3)n2)cc1C#N [Example 250, (2S)-N-{2-[2-cyano-4-(2-{[4-(morpholin-4-yl)phenyl]amino}pyrimidin-4-yl)phenoxy]ethyl}-2-hydroxypropanamide]",50 to 500
8,"CC(C)(N)C(=O)N1CCC(COc2ccc(-c3ccnc(Nc4ccc(N5CCOCC5)cc4)n3)cc2C#N)CC1 [Example 255, 2-{[1-(2-methylalanyl)piperidin-4-yl]methoxy}-5-(2-{[4-(morpholin-4-yl)phenyl]amino}pyrimidin-4-yl)benzonitrile]",50 to 500
9,"CC(Oc1ccc(-c2ccnc(Nc3ccc(N4CCOCC4)cc3)n2)cc1C#N)C(=O)O (stereo not drawn) [Example 265, 2-[2-Cyano-4-(2-{[4-(morpholin-4-yl)phenyl]amino}pyrimidin-4-yl)phenoxy]propanoic acid]",50 to 500
10,"CC(=O)Nc1cccc(Nc2nccc(-c3cccc(C#N)c3)n2)c1 [Example 277, N-(3-{[4-(3-Cyanophenyl)pyrimidin-2-yl]amino}phenyl) acetamide]",50 to 500
11,"CC(C)(C)c1ccc(Nc2nccc(-c3cccc(C#N)c3)n2)cc1 [Example 282, 3-{2-[(4-tert-Butylphenyl)amino]pyrimidin-4-yl}benzonitrile]",50 to 500
12,"COc1ccc(-c2ccnc(Nc3ccc(OC)c(OC4CCN(C)CC4)c3)n2)cc1C#N [Example 289, 2-Methoxy-5-[2-({4-methoxy-3-[(1-methylpiperidin-4-yl)oxy]phenyl}amino)pyrimidin-4-yl]benzonitrile]",50 to 500
13,"CN1CCN(CCOc2ccc(Nc3nccc(-c4cccc(C#N)c4)n3)cc2)CC1 [Example 292, 3-[2-({4-[2-(4-Methylpiperazin-1-yl)ethoxy]phenyl}amino)pyrimidin-4-yl]benzonitrile]",50 to 500
14,CC(C)(C)c1cccc(Nc2nccc(-c3cccc(C#N)c3)n2)c1 [compound 300],50 to 500

# Now from value to compound:
row,IC50 [nM],SMILES
1,5 to 50,"CC(C)(C)C(=O)Nc1ccc(-c2ccnc(Nc3ccc(N4CCOCC4)cc3)n2)cc1C#N [Example 196, N-[2-cyano-4-(2-{[4-(morpholin-4-yl)phenyl]amino}pyrimidin-4-yl)phenyl]-2,2-dimethylpropanamide]"
2,5 to 50,"N#Cc1cc(-c2ccnc(Nc3ccc(N4CCOCC4)cc3)n2)ccc1OCCNC(=O)CO [Example 197, N-{2-[2-cyano-4-(2-{[4-(morpholin-4-yl)phenyl]amino}pyrimidin-4-yl)phenoxy]ethyl}-2-hydroxyacetamide]"
3,50 to 500,"N#Cc1cccc(-c2ccnc(Nc3ccc4c(c3)CCC4)n2)c1 [Example 198, 3-[2-(2,3-Dihydro-1H-inden-5-ylamino)pyrimidin-4-yl]benzonitrile]"
4,5 to 50,"COc1cc(Nc2nccc(-c3ccc(OC4CCN(C(=O)CO)C4)c(C#N)c3)n2)ccc1OCCOCCN (stereo not drawn) [Example 199, 5-[2-({4-[2-(2-aminoethoxy)ethoxy]-3-methoxyphenyl}amino)pyrimidin-4-yl]-2-{[1-(hydroxyacetyl)pyrrolidin-3-yl]oxy}benzonitrile]"
5,5 to 50,"N#Cc1cc(-c2ccnc(Nc3ccc(N4CCOCC4)cc3)n2)ccc1NCc1cccnc1 [Example 200, 5-(2-{[4-(Morpholin-4-yl)phenyl]amino}pyrimidin-4-yl)-2-[(pyridin-3-ylmethyl)amino] benzonitrile]"
6,50 to 500,"N#Cc1cc(-c2ccnc(Nc3ccc(N4CCOCC4)cc3)n2)ccc1NC(=O)c1cccnc1 [Example 204, N-[2-cyano-4-(2-{[4-(morpholin-4-yl)phenyl]amino}pyrimidin-4-yl)phenyl]pyridine-3-carboxamide]"
7,50 to 500,"CN1CCN(C2CCN(c3ccc(-c4ccnc(Nc5ccc(N6CCOCC6)cc5)n4)cc3C#N)CC2)CC1 [Example 213, 2-[4-(4-Methylpiperazin-1-yl)piperidin-1-yl]-5-(2-{[4-(morpholin-4-yl)phenyl]amino}pyrimidin-4-yl)benzonitrile]"
8,50 to 500,"CC(C)N1CCC(Oc2ccc(-c3ccnc(Nc4ccc(N5CCOCC5)cc4)n3)cc2C#N)CC1 [Example 227, 5-(2-{[4-(Morpholin-4-yl)phenyl]amino}pyrimidin-4-yl)-2-{[1-(propan-2-yl)piperidin-4-yl]oxy}benzonitrile]"
9,5 to 50,"CC(C)C[C@H](O)C(=O)N1CCC(Oc2ccc(-c3ccnc(Nc4ccc(N5CCOCC5)cc4)n3)cc2C#N)CC1 [Example 229, 2-({1-[(2S)-2-hydroxy-4-methylpentanoyl]piperidin-4-yl}oxy)-5-(2-{[4-(morpholin-4-yl)phenyl]amino}pyrimidin-4-yl)benzonitrile]"
10,5 to 50,"N#Cc1cc(-c2ccnc(Nc3ccc(N4CCOCC4)cc3)n2)ccc1OC1CCN(C(=O)C(F)(F)F)CC1 [Example 247, 5-(2-{[4-(Morpholin-4-yl)phenyl]amino}pyrimidin-4-yl)-2-{[1-(trifluoroacetyl)piperidin-4-yl]oxy}benzonitrile]"
11,5 to 50,"CC(C)C(=O)Nc1ccc(-c2ccnc(Nc3ccc(N4CCOCC4)cc3)n2)cc1C#N [Example 267, N-[2-Cyano-4-(2-{[4-(morpholin-4-yl)phenyl]amino}pyrimidin-4-yl)phenyl]-2-methylpropanamide]"
12,5 to 50,"COc1cc(NC(C)=O)cc(Nc2nccc(-c3ccc(OC)c(C#N)c3)n2)c1 [Example 279, N-(3-{[4-(3-Cyano-4-methoxyphenyl)pyrimidin-2-yl]amino}-5-methoxyphenyl) acetamide]"
13,5 to 50,"COc1ccc(-c2ccnc(Nc3ccccc3)n2)cc1C#N [compound 299, 2-Methoxy-5-[2-(phenylamino)pyrimidin-4-yl]benzonitrile]"
